Measurements taken from BindingDB's records for doi:10.1021/cb600276q (Genentech, 2006).
Where a SMILES comes first, the peptide text is derived from it.

Columns and labels:
Test in all cases: Fluorescence Polarization Affinity Measurements.
Details in all cases: pH 7.2; 22 °C
[1] = biological target: T1, Baculoviral IAP repeat-containing protein 3 [252-340] (Homo sapiens, UniProt Q13489)
T1 construct: 252-340
Procedure: (§1) Samples for fluorescence polarization affinity measurements were prepared by addition of serial dilutions of target protein to each well containing antagonist and polarization probe in the buffer. Samples were read after 30-min incubation. Fluorescence polarization values were plotted as a function of the antagonist concentration, and the IC50 values were obtained by fitting the data to a four-parameter equation using KaleidaGraph software. Ki values for the antagonists were determined from the IC50 values.

[2] = biological target: T2, Baculoviral IAP repeat-containing protein 2 [266-354] (Homo sapiens, UniProt Q13490)
T2 construct: 266-354
Procedure: as §1

[3] = biological target: T3, E3 ubiquitin-protein ligase XIAP [241-356] (Homo sapiens, UniProt P98170)
T3 construct: 241-356
Procedure: as §1

[4] = biological target: T4, Complex of Baculoviral IAP repeat-containing protein 7 [1-159,S150G] and E3 ubiquitin-protein ligase XIAP [336-348] (Homo sapiens, UniProt Q96CA5, S150G)
T4 construct: 1-159; 336-348
Procedure: as §1

Row | Ki [1] [nM] | Ki [2] [nM] | Ki [3] [nM] | Ki [4] [nM] | SMILES
1 | 490 | 110 | – | – | CN[C@@H](C)C(=O)N[C@H]1CCC[C@H]2SC[C@@H](C(=O)Nc3cc(C)nn3-c3ccccc3)N2C1=O [(3R,6S,9aR)-N-(3-methyl-1-phenyl-1H-pyrazol-5-yl)-6-[(2S)-2-(methylamino)propanamido]-5-oxo-octahydroazepino[2,1-b][1,3]thiazole-3-carboxamide]
2 | 130 | 50 | – | – | CN[C@@H](C)C(=O)N[C@H]1CCC[C@H]2SC(C)(C)[C@@H](C(=O)Nc3cc(C)nn3-c3ccccc3)N2C1=O [(3R,6S,9aR)-2,2-dimethyl-N-(3-methyl-1-phenyl-1H-pyrazol-5-yl)-6-[(2S)-2-(methylamino)propanamido]-5-oxo-octahydroazepino[2,1-b][1,3]thiazole-3-carboxamide]
3 | 70 | 30 | 50 | 40 | CC(C)[C@H](NC(=O)[C@H](C)N)C(=O)N1CCC[C@H]1C(=O)N[C@@H](Cc1c[nH]c2ccccc12)C(=O)O [L-alanyl-L-valyl-L-prolyl-L-tryptophan] (H-AVPW-OH)
